Results from patent publication US20200405868A1, “GEL-FORMING POLYPEPTIDES” (priority 2018, published 2020).
“Also recorded” adds a separate entry of the source. One block for each substance: values may come before it. Where no end group is shown, it is not given here. [ ]: non-standard residue; d: D form. The star is where a group is joined. Palmitoyl = CCCCCCCCCCCCCCCC(=O)*

Experiment: Compound gel-forming ability in water (visual inspection, tube tapping assay, tilted tube assay);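 note: peptides mixed with de-ionized water at about 22-25 °C, judged after 20 min by eye plus tube tapping (10 taps, moves counted) and 90° tilt mobility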
Assay type: physicochemical
Conditions: for gel formation at 6% w/w: 6% w/w in water; for gel formation at 11% w/w: 11% w/w in water; for gel formation in aqueous solution, 6% / gel formation in aqueous solution, 11% / gel formation in aqueous solution, 3% / gel formation in aqueous solution, 20%: Table 3; for gel formation in aqueous solution, 6% / propensity to form gels, chimeric or mutated polypeptides, 6% / propensity to form gels, wild-type counterparts, 6%: 6% w/w; for gel formation in aqueous solution, 11% / propensity to form gels, chimeric or mutated polypeptides, 11% / propensity to form gels, wild-type counterparts, 11%: 11% w/w; for Physical property at 11% w/w: 11% w/w in aqueous solution, room temperature; for gel formation at 3% w/w: 3% w/w in water; for gel formation at 20% w/w: 20% w/w in water; for gel formation in aqueous solution, 20% / propensity to form gels, chimeric or mutated polypeptides, 20% / propensity to form gels, wild-type counterparts, 20%: 20% w/w

gel formation at 6% w/w: semisolid gel | gel formation at 11% w/w: semisolid gel | gel formation in aqueous solution, 6%: SS (SS for semisolid gel) | gel formation in aqueous solution, 11%: SS (SS for semisolid gel)
Substance: Pal-KVQKLSAPVDPSSPHSY-miniPEG-CYFQNCPRG-NH2 [SEQ ID NO:204]
propensity to form gels, chimeric or mutated polypeptides, 6% (Table 5): SS (An ability to form semisolid gel is represented by an SS) | propensity to form gels, chimeric or mutated polypeptides, 11% (Table 5): SS (An ability to form semisolid gel is represented by an SS)

Substance: Ace-RADARADARADARADA-NH2 [SEQ ID NO:142, reference compound]
Physical property at 11% w/w (Table 2): SS (SS for semisolid gel)

Substance: Pal-VGSKAF-NH2 (Palmitoyl-VGSKAF-NH2; SMILES CCCCCCCCCCCCCCCC(=O)N[C@H](C(=O)NCC(=O)N[C@@H](CO)C(=O)N[C@@H](CCCCN)C(=O)N[C@@H](C)C(=O)N[C@@H](Cc1ccccc1)C(N)=O)C(C)C; UniProt P06881 114-119, looked up, fragment) [SEQ ID NO:132]
Physical property at 11% w/w (Table 2): AS/IS (AS/IS for aqueous solution or insoluble)

Substance: [dF][dF]W[dR] [SEQ ID NO:7, reference compound]
gel formation at 3% w/w: semisolid gel | gel formation at 6% w/w: semisolid gel | gel formation at 11% w/w: form self-assembling gels; also recorded: semisolid gel | Physical property at 11% w/w (Table 1): SS (SS for semisolid gel) | gel formation in aqueous solution, 3% (3% w/w): SS (SS for semisolid gel) | gel formation in aqueous solution, 6%: SS (SS for semisolid gel) | gel formation in aqueous solution, 11%: SS (SS for semisolid gel) | propensity to form gels, wild-type counterparts, 3% (Table 5, 3% w/w): SS (An ability to form semisolid gel is represented by an SS) | propensity to form gels, wild-type counterparts, 6% (Table 5): SS (An ability to form semisolid gel is represented by an SS) | propensity to form gels, wild-type counterparts, 11% (Table 5): SS (An ability to form semisolid gel is represented by an SS)

Substance: Pal-SSPHSY-miniPEG-EAYKAAEKAYAAKEAAKEAAKAKAEKKAAYAKAKAAKYEKKAKKAAAEYKKK ({Palmitoyl-Ser-Ser-Pro-H2N-Ser-Tyr-miniPEG}-EAYKAAEKAYAAKEAAKEAAKAKAEKKAAYAKAKAAKYEKKAKKAAAEYKKK) [SEQ ID NO:245]
gel formation at 20% w/w: semisolid gel | gel formation in aqueous solution, 11%: AS/IS (AS/IS for aqueous solution or insoluble) | gel formation in aqueous solution, 20%: SS (SS for semisolid gel) | propensity to form gels, chimeric or mutated polypeptides, 11% (Table 5): AS/IS | propensity to form gels, chimeric or mutated polypeptides, 20% (Table 5): SS (An ability to form semisolid gel is represented by an SS)

Substance: Pal-KVQKLSAPVDPSSPHSY-miniPEG-Y-(D-Ala)-GF(D-Leu)-NH2 [SEQ ID NO:212]
gel formation at 3% w/w: semisolid gels | gel formation in aqueous solution, 3% (3% w/w): SS (SS for semisolid gel) | propensity to form gels, chimeric or mutated polypeptides, 3% (Table 5, 3% w/w): SS (An ability to form semisolid gel is represented by an SS)

Substance: DRVYIHPF-NH2 [SEQ ID NO:16, reference compound]
Physical property at 11% w/w (Table 1): AS/IS

gel formation at 6% w/w: semisolid gel | gel formation at 11% w/w: semisolid gel | gel formation at 20% w/w: semisolid gel | Physical property at 11% w/w (Table 1): SS (SS for semisolid gel) | gel formation in aqueous solution, 6%: SS (SS for semisolid gel) | gel formation in aqueous solution, 11%: SS (SS for semisolid gel) | gel formation in aqueous solution, 20%: SS (SS for semisolid gel)
Substance: Pal-RQSMNNFQGLRSFGCRFGTCTVQKLAHQIYQFTDKDKDNVAPRSKISPQGY-NH2 [SEQ ID NO:274]
propensity to form gels, chimeric or mutated polypeptides, 6% (Table 5): SS (An ability to form semisolid gel is represented by an SS) | propensity to form gels, chimeric or mutated polypeptides, 11% (Table 5): SS (An ability to form semisolid gel is represented by an SS) | propensity to form gels, chimeric or mutated polypeptides, 20% (Table 5): SS (An ability to form semisolid gel is represented by an SS)

gel formation at 11% w/w: form self-assembling gels | Physical property at 11% w/w (Table 1): SS (SS for semisolid gel) | gel formation in aqueous solution, 6%: SS (SS for semisolid gel) | gel formation in aqueous solution, 11%: SS (SS for semisolid gel)
Substance: (D-Phe)-QWAVGHL-(4-CI)Phe-NH2 [SEQ ID NO:61, reference compound]
propensity to form gels, wild-type counterparts, 6% (Table 5): SS (An ability to form semisolid gel is represented by an SS) | propensity to form gels, wild-type counterparts, 11% (Table 5): SS (An ability to form semisolid gel is represented by an SS)

Substance: SVSEIQLMHNLGKHLNSMERVEWLRKKLQDVHNF [SEQ ID NO:25, reference compound]
gel formation at 6% w/w: does not form gel | gel formation at 11% w/w: does not form gel | Physical property at 11% w/w (Table 1): AS/IS | gel formation in aqueous solution, 6%: AS/IS (AS/IS for aqueous solution or insoluble) | gel formation in aqueous solution, 11%: AS/IS (AS/IS for aqueous solution or insoluble) | propensity to form gels, wild-type counterparts, 6% (Table 5): AS/IS | propensity to form gels, wild-type counterparts, 11% (Table 5): AS/IS

Substance: Pal-HSY-(D-Ala)-GF(D-Leu)-NH2 [SEQ ID NO:213]
gel formation at 3% w/w: semisolid gels | gel formation in aqueous solution, 3% (3% w/w): SS (SS for semisolid gel)

gel formation in aqueous solution, 20%: SS (SS for semisolid gel)
Substance: Pal-SSPHSY-miniPEG -SYS-Nle-EH-(D-Phe)-RWGKPV-NH2 [SEQ ID NO:223]

gel formation at 11% w/w: semisolid gel | gel formation in aqueous solution, 11%: SS (SS for semisolid gel)
Substance: HSDAVFTDNYTRLRKQ-Nle-AVKKYLNSILN-(Pal-K)-SY-NH2 [SEQ ID NO:266]
propensity to form gels, chimeric or mutated polypeptides, 11% (Table 5): SS (An ability to form semisolid gel is represented by an SS)

Substance: Pal-QKLAHQIYQFTDKDVAPRSKISPQGY-NH2 (Palmitoyl-QKLAHQIYQFTDKDVAPRSKISPQGY-NH2; SMILES CCCCCCCCCCCCCCCC(=O)N[C@@H](CCC(N)=O)C(=O)N[C@@H](CCCCN)C(=O)N[C@@H](CC(C)C)C(=O)N[C@@H](C)C(=O)N[C@@H](Cc1c[nH]cn1)C(=O)N[C@@H](CCC(N)=O)C(=O)N[C@H](C(=O)N[C@@H](Cc1ccc(O)cc1)C(=O)N[C@@H](CCC(N)=O)C(=O)N[C@@H](Cc1ccccc1)C(=O)N[C@H](C(=O)N[C@@H](CC(=O)O)C(=O)N[C@@H](CCCCN)C(=O)N[C@@H](CC(=O)O)C(=O)N[C@H](C(=O)N[C@@H](C)C(=O)N1CCC[C@H]1C(=O)N[C@@H](CCCNC(=N)N)C(=O)N[C@@H](CO)C(=O)N[C@@H](CCCCN)C(=O)N[C@H](C(=O)N[C@@H](CO)C(=O)N1CCC[C@H]1C(=O)N[C@@H](CCC(N)=O)C(=O)NCC(=O)N[C@@H](Cc1ccc(O)cc1)C(N)=O)[C@@H](C)CC)C(C)C)[C@@H](C)O)[C@@H](C)CC) [SEQ ID NO:103]
Physical property at 11% w/w (Table 2): AS/IS (AS/IS for aqueous solution or insoluble)

gel formation in aqueous solution, 11%: SS (SS for semisolid gel) | propensity to form gels, chimeric or mutated polypeptides, 6% (Table 5): AS/IS
Substance: Pal-KVQKLSAPVDPSSPHSY-miniPEG-RPKPQQFFGLM-NH2 [SEQ ID NO:215]
gel formation in aqueous solution, 6%: AS/IS (AS/IS for aqueous solution or insoluble) | propensity to form gels, chimeric or mutated polypeptides, 11% (Table 5): SS (An ability to form semisolid gel is represented by an SS)

Substance: EAYKAAEKAYAAKEAAKEAAKAKAEKKAAYAKAKAAKYEKKAKKAAAEYKKK [SEQ ID NO:42, reference compound]
gel formation at 11% w/w: does not form gel | gel formation at 20% w/w: does not form gel | Physical property at 11% w/w (Table 1): AS/IS | gel formation in aqueous solution, 11%: AS/IS (AS/IS for aqueous solution or insoluble) | gel formation in aqueous solution, 20%: AS/IS (AS/IS for aqueous solution or insoluble) | propensity to form gels, wild-type counterparts, 11% (Table 5): AS/IS | propensity to form gels, wild-type counterparts, 20% (Table 5): AS/IS

gel formation at 11% w/w: liquid gel | gel formation at 20% w/w: liquid gel | propensity to form gels, chimeric or mutated polypeptides, 3% (Table 5, 3% w/w): AS/IS
Substance: (G1p)RPRLSHKGP(Nle)PF-K(Pal)HSY-NH2 [SEQ ID NO:262]

Substance: IEGPTLRQWLAARA [SEQ ID NO:9, reference compound]
Physical property at 11% w/w (Table 1): SS (SS for semisolid gel)

Substance: Pal-VQKLPHSY-NH2 (Palmitoyl-VQKLPHSY-NH2; SMILES CCCCCCCCCCCCCCCC(=O)N[C@H](C(=O)N[C@@H](CCC(N)=O)C(=O)N[C@@H](CCCCN)C(=O)N[C@@H](CC(C)C)C(=O)N1CCC[C@H]1C(=O)N[C@@H](Cc1c[nH]cn1)C(=O)N[C@@H](CO)C(=O)N[C@@H](Cc1ccc(O)cc1)C(N)=O)C(C)C) [SEQ ID NO:117]
Physical property at 11% w/w (Table 2): SS (SS for semisolid gel)

gel formation in aqueous solution, 11%: SS (SS for semisolid gel) | gel formation in aqueous solution, 20%: SS (SS for semisolid gel)
Substance: Pal-HSYH-(D-Phe)-RWGKPV-NH2 [SEQ ID NO:273]
propensity to form gels, chimeric or mutated polypeptides, 11% (Table 5): SS (An ability to form semisolid gel is represented by an SS) | propensity to form gels, chimeric or mutated polypeptides, 20% (Table 5): SS (An ability to form semisolid gel is represented by an SS)

Substance: Pal-SSPHSY-miniPEG-SLRRSSCFGGRMDRIGAQSGLGCNSFRY-NH2 [SEQ ID NO:238]
gel formation at 11% w/w: semisolid gel | gel formation at 20% w/w: semisolid gel | gel formation in aqueous solution, 11%: SS (SS for semisolid gel) | gel formation in aqueous solution, 20%: SS (SS for semisolid gel) | propensity to form gels, chimeric or mutated polypeptides, 11% (Table 5): SS (An ability to form semisolid gel is represented by an SS) | propensity to form gels, chimeric or mutated polypeptides, 20% (Table 5): SS (An ability to form semisolid gel is represented by an SS)

Substance: SDAAVDTSSEITTKDLKEKKEVVEEAEN-NH2 (ends and bridges not checked) [SEQ ID NO:13, reference compound]
gel formation at 11% w/w: form self-assembling gels; also recorded: liquid gel | gel formation at 20% w/w: semisolid gel | gel formation in aqueous solution, 20%: SS (SS for semisolid gel) | propensity to form gels, wild-type counterparts, 20% (Table 5): SS (An ability to form semisolid gel is represented by an SS)

gel formation in aqueous solution, 11%: SS (SS for semisolid gel) | gel formation in aqueous solution, 20%: SS (SS for semisolid gel)
Substance: HAEGTFTSDVSSYLEGQAAREFIAWLVK(YSHPSS-Pal)GRG [SEQ ID NO:270]
propensity to form gels, chimeric or mutated polypeptides, 11% (Table 5): SS (An ability to form semisolid gel is represented by an SS) | propensity to form gels, chimeric or mutated polypeptides, 20% (Table 5): SS (An ability to form semisolid gel is represented by an SS)

Substance: HGDGSFSDEMNTILDNLAARDFINWLIQTKITD-OH [SEQ ID NO:12, reference compound]
gel formation at 11% w/w: liquid gel | gel formation in aqueous solution, 6%: AS/IS (AS/IS for aqueous solution or insoluble) | propensity to form gels, wild-type counterparts, 6% (Table 5): AS/IS
